Measurements from EP4752149A1, “OXYGEN-CONTAINING FUSED TRICYCLIC DERIVATIVE, AND PREPARATION METHOD THEREFOR AND USE THEREOF” (Tuojie Biotech (Shanghai) Co., Ltd., priority 2023, dated 2025).

Assays:
Format in all cases: cell-based
[1] = tested on: Triple-negative breast cancer cells (HCC1806); experiment: Inhibitory activity against triple-negative breast cancer cells (HCC1806), CTG cell viability; conditions: 7 days with compound
Description: Triple-negative breast cancer cells (HCC1806, Nanjing Cobioer Biosciences Co., Ltd.) were cultured using an RPMI 1640 culture medium containing 10% FBS in a cell incubator (37 °C, 5% CO2). On day one, the cells were plated in a 384-well plate at a cell concentration of 200 cells/well and cultured overnight in an incubator. On day two, the cells were treated with compounds. The highest compound concentration was 10 µM and was diluted 3-fold to obtain 9 concentrations, and the final concentration of DMSO was 0.2%. After the cells were cultured in the incubator for another 7 days, the cell viability was tested using a CTG Cell Viability Detection Reagent (MCE); the testing method was consistent with the method provided by the kit. Data were processed using XLfit, and IC50 was calculated. [formula] X: the logarithm of the compound concentration; Y: inhibition%. Table 4. The IC50 (nM) of compounds of the present disclosure against HCC1806

[2] = tested on: Ovarian cancer cells (OVCAR3); experiment: Inhibitory activity against ovarian cancer cells (OVCAR3), CTG cell viability; conditions: Homo sapiens, OVCAR-3, 168 h, 7 days with compound
Description: Ovarian cancer cells (OVCAR3) were cultured using an RPMI 1640 culture medium containing 10% FBS in a cell incubator (37 °C, 5% CO2). On day one, the cells were plated in a 384-well plate at a cell concentration of 800 cells/well and cultured overnight in an incubator. On day two, the cells were treated with compounds. The highest compound concentration was 10 µM and was diluted 3-fold to obtain 9 concentrations, and the final concentration of DMSO was 0.1%. After the cells were cultured in the incubator for another 7 days, the cell viability was tested using a CTG Cell Viability Detection Reagent (MCE); the testing method was consistent with the method provided by the kit. Data were processed using GraphPad Prism 8, and IC50 was calculated. [formula] X: the logarithm of the compound concentration; Y: inhibition%. Table 2. The IC50 (nM) of compounds of the present disclosure against OVCAR3

[3] = tested on: Human breast cancer cells (MDA-MB-231); experiment: Inhibitory activity against human breast cancer cells (MDA-MB-231), CTG cell viability; conditions: 7 days with compound
Description: (§1) Human breast cancer cells (MDA-MB-231) were cultured using a DMEM culture medium containing 10% FBS in a cell incubator (37 °C, 5% CO2). On day one, the cells were plated in a 384-well plate at a cell concentration of 600 cells/well and cultured overnight in an incubator. On day two, the cells were treated with compounds. The highest compound concentration was 10 µM and was diluted 3-fold to obtain 9 concentrations, and the final concentration of DMSO was 0.2%. After the cells were cultured in the incubator for another 7 days, the cell viability was tested using a CTG Cell Viability Detection Reagent; the testing method was consistent with the method provided by the kit. Data were processed using XLFit, and IC50 was calculated. [formula] X: the logarithm of the compound concentration; Y: % inhibition. Table 8. The IC50 (nM) of a compound of the present disclosure against MDA-MB-231

MCF-7/Palbo-R = experiment: Inhibitory activity against CDK4/6 inhibitor-resistant human breast cancer cells (MCF-7 palbociclib-resistant cell line), cell viability; conditions: 5 days with compound, CellTiter-Glo cell viability
Description: MCF-7/Palbo-R cell source: MCF7 cells (Nanjing Cobioer Biosciences Co., Ltd.) were treated with 1 µM palbociclib for a long time, and drug resistance was induced.
The palbociclib-resistant breast cancer cell line MCF-7/Palbo-R was cultured using a DMEM culture medium containing 10% FBS in a cell incubator (37 °C, 5% CO2). On day one, the cells were plated in a 384-well plate at a cell concentration of 800 cells/well and cultured overnight in an incubator. On day two, the cells were treated with compounds. The highest compound concentration was 10 µM and was diluted 3-fold to obtain 9 concentrations, and the final concentration of DMSO was 0.2%. After the cells were cultured in the incubator for another 5 days, the cell viability was tested using a CellTiter-Glo luminescent cell viability assay kit; the testing method was consistent with the method provided by the kit. Data were processed using XLfit, and IC50 was calculated.
The inhibition rates (IR) of the test compounds were calculated using the following formula: IR (%) = (1 - (RLU compound - RLU blank control) / (RLU vehicle control-RLU blank control)) × 100%. Table 16. The IC50 (nM) of a compound of the present disclosure against MCF-7/Palbo-R

[4] = tested on: Human breast cancer cells (SUM-149PT); experiment: Inhibitory activity against human breast cancer cells (SUM-149PT), CTG cell viability; conditions: 5 days with compound
Description: as §1, with “cells (SUM-149PT)” for “cells (MDA-MB-231)”, “of 800” for “of 600”, “another 5” for “another 7”, “Table 14.” for “Table 8.”, “against SUM-149PT” for “against MDA-MB-231”

[5] = tested on: Human non-small cell lung cancer cells (A549); experiment: Inhibitory activity against human non-small cell lung cancer cells (A549), CTG cell viability; conditions: 5 days with compound
Description: (§2) Human non-small cell lung cancer cells (A549) were cultured using an F12K culture medium containing 10% FBS in a cell incubator (37 °C, 5% CO2). On day one, the cells were plated in a 384-well plate at a cell concentration of 300 cells/well and cultured overnight in an incubator. On day two, the cells were treated with compounds. The highest compound concentration was 10 µM and was diluted 3-fold to obtain 9 concentrations, and the final concentration of DMSO was 0.2%. After the cells were cultured in the incubator for another 5 days, the cell viability was tested using a CTG Cell Viability Detection Reagent; the testing method was consistent with the method provided by the kit. Data were processed using XLFit, and IC50 was calculated. [formula] X: the logarithm of the compound concentration; Y: % inhibition. Table 10. The IC50 (nM) of a compound of the present disclosure against A549

[6] = tested on: Human prostate cancer cells (22RV1); experiment: Inhibitory activity against human prostate cancer cells (22RV1), CTG cell viability; conditions: 5 days with compound
Description: as §2, with “prostate” for “non-small cell lung”, “(22RV1)” for “(A549)”, “RPMI 1640” for “F12K”, “500” for “300”, “12.” for “10.”, “22RV1” for “A549”

SMILES	IC50 ([1]; Homo sapiens, 168 h) [nM]	IC50 [2] [nM]	further results
COCc1cc(C(=O)Nc2cc([C@H]3CC[C@@H](OC(=O)NC(C)C)C3)[nH]n2)n(C)n1 [PF-07104091, reference compound]	–	–	IC50 [1]: 936 nM; IC50 [3]: 1250 nM; IC50 (MCF-7/Palbo-R): 836 nM; IC50 [4]: 1340 nM; IC50 [5]: 1130 nM; IC50 [6]: 2700 nM
CNC(=O)c1ccc(Nc2ncc(F)c(-c3cc(F)c4nc(C(C)(C)O)n5c4c3OC[C@@H]5C)n2)cc1 [Example 3, (S)-4-((5-Fluoro-4-(8-fluoro-2-(2-hydroxypropan-2-yl)-3-methyl-3,4-dihydro-5-oxa-1,2a-diazaacenaphthylen-6-yl)pyrimidin-2-yl)amino)-N-methylbenzamide]	172	197	–
CC(=O)c1c(C)c2cnc(Nc3ccc(N4CCNCC4)cn3)nc2n(C2CCCC2)c1=O [Palbociclib]	–	–	IC50 (MCF-7/Palbo-R; Homo sapiens, MCF7, 120 h): > 2000 nM
CC(C)n1c(C(C)(C)O)nc2c(F)cc(-c3nc(N[C@@H]4CCOC[C@H]4O)ncc3Cl)cc21 [PF-07220060]	–	–	IC50 [1]: 1590 nM; IC50 [3]: 567 nM; IC50 (MCF-7/Palbo-R): 967 nM; IC50 [5]: 1870 nM
C[C@H]1COc2c(-c3nc(Nc4ccc(S(C)(=N)=O)cc4)ncc3Cl)cc(F)c3nc(C(C)(C)O)n1c23 (stereo partly drawn) [Example 19, (4-((5-Chloro-4-((S)-8-fluoro-2-(2-hydroxypropan-2-yl)-3-methyl-3,4-dihydro-5-oxa-1,2a-diazaacenaphthylen-6-yl)pyrimidin-2-yl)amino)phenyl)(methyl)sulfinamide]	–	276	–

Second part, led by results:

IC50 ([1]; Homo sapiens, 168 h) [nM]	IC50 [2] [nM]	SMILES	further results
342	670	CNS(=O)(=O)c1ccc(Nc2ncc(Cl)c(-c3cc(F)c4nc(C(C)(C)O)n5c4c3OC[C@@H]5C)n2)c(F)c1 [Example 7, (S)-4-((5-Chloro-4-(8-fluoro-2-(2-hydroxypropan-2-yl)-3-methyl-3,4-dihydro-5-oxa-1,2a-diazaacenaphthylen-6-yl)pyrimidin-2-yl)amino)-3-fluoro-N-methylbenzenesulfonamide]	–
303	572	CC(C)c1nc2c(F)cc(-c3nc(Nc4ccc(N5CCOCC5=O)cc4F)ncc3F)c3c2n1[C@@H](C)CO3 [Example 27, (S)-4-(3-Fluoro-4-((5-fluoro-4-(8-fluoro-2-isopropyl-3-methyl-3,4-dihydro-5-oxa-1,2a-diazaacenaphthylen-6-yl)pyrimidin-2-yl)amino)phenyl)morpholin-3-one]	–
278	348	C[C@H]1COc2c(-c3nc(Nc4ccc(N5CCOCC5=O)cc4F)ncc3F)cc(F)c3nc(C(C)(C)O)n1c23 [Example 4, (S)-4-(3-Fluoro-4-((5-fluoro-4-(8-fluoro-2-(2-hydroxypropan-2-yl)-3-methyl-3,4-dihydro-5-oxa-1,2a-diazaacenaphthylen-6-yl)pyrimidin-2-yl)amino)phenyl)morpholin-3-one]	–
199	574	C[C@H]1COc2c(-c3nc(Nc4ccc(N5CCOCC5=O)cc4F)ncc3Cl)cc(F)c3nc(C4(O)CCCC4)n1c23 [Example 44, (S)-4-(4-((5-Chloro-4-(8-fluoro-2-(1-hydroxycyclopentyl)-3-methyl-3,4-dihydro-5-oxa-1,2a-diazaacenaphthylen-6-yl)pyrimidin-2-yl)amino)-3-fluorophenyl)morpholin-3-one]	–
386	–	C[C@H]1COc2c(-c3nc(Nc4ccc(N5CCNCC5=O)cc4F)ncc3Cl)cc(F)c3nc(C(C)(C)O)n1c23 [Example 23, (S)-1-(4-((5-Chloro-4-(8-fluoro-2-(2-hydroxypropan-2-yl)-3-methyl-3,4-dihydro-5-oxa-1,2a-diazaacenaphthylen-6-yl)pyrimidin-2-yl)amino)3-fluorophenyl)piperazin-2-one]	–
406	825	COC(C)c1nc2c(F)cc(-c3nc(Nc4ccc(N5CCOCC5=O)cc4F)ncc3F)c3c2n1[C@@H](C)CO3 (stereo partly drawn) [Example 22, 4-(3-Fluoro-4-((5-fluoro-4-((3S)-8-fluoro-2-(1-methoxyethyl)-3-methyl-3,4-dihydro-5-oxa-1,2a-diazaacenaphthylen-6-yl)pyrimidin-2-yl)amino)phenyl)morpholin-3-one]	–
